Reference: EP2354120A1, “Synthesis of acyloxyalkyl carbamate prodrugs and intermediates thereof” (XenoPort, Inc., priority 2003, dated 2005)
Read-outs that look alike come from different tables or passages of the source. Each block holds one molecule with its values, some of them ahead of it.

Tests used:
pancreatin = type: in vitro ADME, porcine; settings: 5 µM
Excerpt: The reaction was stopped by addition of 2 volumes of methanol.

Caco-2 cells = settings: human, Caco-2, 200 uM
Procedure: Caco-2 cells obtained from continuous culture (passage less than 28) were seeded at high density onto Transwell polycarbonate filters. […] Inserts were placed in 12 or 24 well plates containing buffer and incubated for 30 min at 37C°. Prodrug (200 µM) was added to the apical or basolateral compartment (donor) and concentrations of prodrug and/or released parent drug in the opposite compartment (receiver) were determined at intervals over 1 hour using LC/MS/MS. Values of apparent permeability (Papp) were calculated using the equation: Papp = Vr (dC/dt)//(ACo) [formula]
Here Vr is the volume of the receiver compartment in mL; dC/dt is the total flux of prodrug and parent drug (µM/s), determined from the slope of the plot of concentration in the receiver compartment versus time; Co is the initial concentration of prodrug in µM; A is the surface area of the membrane in cm^2.

[1] = oral; 2 mg t.i.d R-baclofen equivalent to 10 mg t.i.d. racemic baclofen; cited from earlier work
[2] = type: physicochemical; settings: after 60 min
Procedure: The chemical stability of prodrugs in aqueous buffers at pH's of 2.0, 7.4 and 8.0 were also measured. […] Each preparation was incubated with test compound at 37°C for one hour. Aliquots (50 µL) were removed at 0, 30, and 60 min and quenched with 0.1% trifluoroacetic acid in acetonitrile. Samples were then centrifuged and analyzed by LC/MS/MS (see Example 86 below for method details).

[3] = type: in vitro ADME; settings: Caco-2 S9 (0.5 mg protein per mL), 5 µM, 37°C, after 60 min
Procedure: (§1) The stabilities of prodrugs were evaluated in one or more in vitro systems using a variety of tissue preparations following methods known in the art. […] Tissues were obtained from commercial sources (e.g., Pel-Freez Biologicals, Rogers, AR, or GenTest Corporation, Woburn, MA). […] Each preparation was incubated with test compound at 37°C for one hour. Aliquots (50 µL) were removed at 0, 30, and 60 min and quenched with 0.1% trifluoroacetic acid in acetonitrile. Samples were then centrifuged and analyzed by LC/MS/MS (see Example 86 below for method details). […] After centrifugation at 14,000 rpm for 10 min, the supernatant was removed and analyzed by LC/MS/MS. • Caco-2 Homogenate S9 Stability: Caco-2 cells were grown for 21 days prior to harvesting. Culture medium was removed and cell monolayers were rinsed and scraped off into ice-cold 10 mM sodium phosphate/0.15 M potassium chloride, pH 7.4. Cells were lysed by sonication at 4°C using a probe sonicator. Lysed cells were then transferred into 1.5 mL centrifuge vials and centrifuged at 9000 g for 20 min at 4°C. […]
(§2) For stability studies, prodrug (5 µM) was incubated in Caco-2 homogenate S9 fraction (0.5 mg protein per mL) for 60 min at 37°C. Concentrations of intact prodrug and released baclofen were determined at zero time and 60 minutes using LC/MS/MS.

[4] = type: in vitro ADME; settings: Human Plasma, 2.0 µM, 37°C, after 60 min
Procedure: as §1, §2

[5] = type: in vitro ADME; settings: Rat Plasma, 2.0 µM, 37°C, after 60 min
Procedure: as §1, §2

[6] = type: in vitro ADME; settings: Rat Liver S9 (0.5 mg/mL), 2.0 µM, NADPH, 37°C, after 60 min
Procedure: as §1, §2

[7] = type: in vitro ADME; settings: Human Liver S9 (0.5 mg/mL), 2.0 µM, NADPH, 37°C, after 60 min
Procedure: as §1, §2

[8] = 1 % (w/v) pancreatin, pH 7.5, 37 °C, after 60 min

Compound: CCCC(=O)OCOC(=O)NC[C@H](CC(=O)O)c1ccc(Cl)cc1 [(16), Sodium 4-[(Butanoyloxymethoxy)carbonylamino]-(3R)-(4-chlorophenyl)-butanoate]
% of Baclofen Released (pancreatin; pig, pancreatin, 1 h, pH 7.5): 84%
% of Prodrug Remaining (pancreatin; pig, pancreatin, 1 h, pH 7.5): 1%

Compound: CCCC(=O)OC(OC(=O)NC[C@H](CC(=O)O)c1ccc(Cl)cc1)C(C)C (stereo partly drawn) [(27), Sodium 4-[(1-Butanoyloxyisobutoxy)carbonylamino]-(3R)-(4-chlorophenyl)-butanoate]
% of Baclofen Released (pancreatin; [8]): 9%
% of Prodrug Remaining (pancreatin; [8]): 71%
Ratio A-B/B-A (Caco-2 cells): 6.9

Ratio A-B/B-A (Caco-2 cells): 3.0
Compound: CCOC(C)(OCC)C(=O)OCOC(=O)NC[C@H](CC(=O)[O-])c1ccc(Cl)cc1.[Na+] [(51), Sodium 4-[(2,2-Diethoxypropanoyloxymethoxy)carbonylamino]-(3R)-(4-chlorophenyl)-butanoate]

% of Baclofen Released (pancreatin; [8]): 79%
% of Prodrug Remaining (pancreatin; [8]): 1%
Compound: O=C(O)C[C@@H](CNC(=O)OCOC(=O)CCc1ccccc1)c1ccc(Cl)cc1 [(62), Sodium 4-[(3-Phenylpropionoyloxymethoxy)carbonylamino]-(3R)-(4-chlorophenyl)-butanoate]

% of Baclofen Released (pancreatin; [8]): 101%
% of Prodrug Remaining (pancreatin; [8]): 2%
Ratio A-B/B-A (Caco-2 cells): 4.1
Compound: O=C(O)C[C@@H](CNC(=O)OCOC(=O)C1CCCCC1)c1ccc(Cl)cc1 [(14), Sodium 4-[(Cyclohexanecarboxymethoxy)carbonylaminol-(3R)-(4-chlorophenyl)-butanoate]

Compound: CCCC(OC(=O)NC[C@H](CC(=O)[O-])c1ccc(Cl)cc1)OC(=O)C(C)C.[Na+] (stereo partly drawn) [(72), Sodium 4-[(1-Isobutanoyloxybutoxy)carbonylamino]-(3R)-(4-chlorophenyl)-butanoate]
Ratio A-B/B-A (Caco-2 cells): 3.5

Compound: CC(=O)OCOC(=O)NC[C@H](CC(=O)[O-])c1ccc(Cl)cc1.[Na+] [(10), Sodium 4-[(Acetoxymethoxy)carbonylamino]-(3R)-(4-chlorophenyl)-butanoate]
Ratio A-B/B-A (Caco-2 cells): 1.2

Compound: CC(C)C(=O)OCOC(=O)NC[C@H](CC(=O)O)c1ccc(Cl)cc1 [(18), Sodium 4-[(Isobutanoyloxymethoxy)carbonylamino]-(3R)-(4-chlorophenyl)-butanoate]
% of Baclofen Released (pancreatin; pig, pancreatin, 1 h, pH 7.5): 91%
% of Prodrug Remaining (pancreatin; pig, pancreatin, 1 h, pH 7.5): 2%

Compound: CCCC(=O)OC(CCC)OC(=O)NC[C@H](CC(=O)[O-])c1ccc(Cl)cc1.[Na+] (stereo partly drawn) [(73), Sodium 4-[(1-Butanoyloxybutoxy)carbonylamino]-(3R)-(4-chlorophenyl)-butanoate]
Ratio A-B/B-A (Caco-2 cells): 3.2

Compound: CC(C)C(=O)O[C@@H](OC(=O)NC[C@H](CC(=O)O)c1ccc(Cl)cc1)C(C)C [(104), 4-{[(1S)-Isobutanoyloxyisobutoxy]carbonylamino}-(3R)-(4-chlorophenyl) -butanoic Acid]
% of Baclofen Released (pancreatin; 1 % (w/v) pancreatin, pH 7.5, 37 °C, after 60 min, 60 min): 6%
% of Prodrug Remaining (pancreatin; pig, pancreatin, 1 h, pH 7.5): 90%

Ratio A-B/B-A (Caco-2 cells): 2.4
Compound: COc1ccc(C(=O)OCOC(=O)NC[C@H](CC(=O)[O-])c2ccc(Cl)cc2)cc1.[Na+] [(53), Sodium 4-[(4-Methoxybenzoloxymethoxy)carbonylamino]-(3R)-(4-chlorophenyl)-butan oate]

Compound: CCCC(=O)OC(CC)OC(=O)NC[C@H](CC(=O)[O-])c1ccc(Cl)cc1.[Na+] (stereo partly drawn) [(78), Sodium 4-[(1-Butanoyloxypropoxy)carbonylamino]-(3R)-(4-chlorophenyl)-butanoate]
Ratio A-B/B-A (Caco-2 cells): 7.9

Compound: CCCC(=O)OC(C)OC(=O)NC[C@H](CC(=O)[O-])c1ccc(Cl)cc1.[Na+] (stereo partly drawn) [(32), Sodium 4-[(1-Butanoyloxyethoxy)carbonylamino]-(3R)-(4-chlorophenyl)-butanoate]
Ratio A-B/B-A (Caco-2 cells): 7.6

Compound: CCCC(=O)O[C@H](CCC)OC(=O)NC[C@H](CC(=O)O)c1ccc(Cl)cc1 [(86), Sodium 4-{[(1S)-Butanoyloxybutoxy]carbonylamino}-(3R)-(4-chlorophenyl)-butanoate]
% of Baclofen Released (pancreatin; [8]): 76%
% of Prodrug Remaining (pancreatin; [8]): 4%

Compound: NC[C@H](CC(=O)O)c1ccc(Cl)cc1 [R-baclofen, R-(-)-baclofen]
potency relative to orally administered racemic baclofen [1]: about 5 fold

Ratio A-B/B-A (Caco-2 cells): 5.9
Compound: O=C([O-])C[C@@H](CNC(=O)OCOC(=O)c1ccccc1)c1ccc(Cl)cc1.[Na+] [(12)]

Ratio A-B/B-A (Caco-2 cells): 1.1
Compound: CC(OC(=O)NC[C@H](CC(=O)O)c1ccc(Cl)cc1)OC(=O)C1CCCCC1 (stereo partly drawn) [(38), Sodium 4-[(1-Cyclohexylcarbonyloxyethoxy)carbonylamino]-(3R)-(4-chlorophenyl)-butanoate]

Compound: CCCC(=O)O[C@H](OC(=O)NC[C@H](CC(=O)O)c1ccc(Cl)cc1)C(C)C [(90), Sodium 4-{[(1R)-Butanoyloxyisobutoxy]carbonylamino}-(3R)-(4-chlorophenyl)-butanoate]
% of Baclofen Released (pancreatin; [8]): 68%
% of Prodrug Remaining (pancreatin; [8]): 9%

Compound: CC(C)C(OC(=O)NC[C@H](CC(=O)O)c1ccc(Cl)cc1)OC(=O)C(C)(C)C (stereo partly drawn) [(43), Sodium 4-[(1-Pivaloyloxyisobutoxy)carbonylamino]-(3R)-(4-chlorophenyl)-butanoate]
% of Baclofen Released (pancreatin; [8]): 4%
% of Prodrug Remaining (pancreatin; [8]): 82%
Ratio A-B/B-A (Caco-2 cells): 2.3

% of Baclofen Released (pancreatin; pig, pancreatin, 1 h, pH 7.5): 58%
% of Prodrug Remaining (pancreatin; pig, pancreatin, 1 h, pH 7.5): 43%
% of Baclofen Released ([2]; aqueous buffer pH 2.0, 37°C): 0%
% of Prodrug Remaining ([2]; aqueous buffer pH 2.0, 37°C): 103%
% of Baclofen Released ([2]; aqueous buffer pH 7.4, 37°C): 0%
% of Prodrug Remaining ([2]; aqueous buffer pH 7.4, 37°C): 100%
% of Baclofen Released ([2]; aqueous buffer pH 8.0, 37°C): 2%
% of Prodrug Remaining ([2]; aqueous buffer pH 8.0, 37°C): 107%
% of Baclofen Released [3]: 85%
% of Prodrug Remaining [3]: 15%
% of Baclofen Released [4]: 2%
% of Prodrug Remaining [4]: 101%
% of Baclofen Released [5]: 17%
% of Prodrug Remaining [5]: 72%
% of Baclofen Released [6]: 96%
% of Prodrug Remaining [6]: 8%
% of Baclofen Released [7]: 105%
% of Prodrug Remaining [7]: 1%
Compound: CC(OC(=O)NC[C@H](CC(=O)[O-])c1ccc(Cl)cc1)OC(=O)c1ccccc1.[Na+] (some centres unmarked) [(40)]

Compound: CC(=O)OC(C)OC(=O)NC[C@H](CC(=O)O)c1ccc(Cl)cc1 (stereo partly drawn) [(30), Sodium 4-[(1-Acetoxyethoxy)carbonylamino]-(3R)-(4-chlorophenyl)-butanoate]
% of Baclofen Released (pancreatin; pig, pancreatin, 1 h, pH 7.5): 9%
% of Prodrug Remaining (pancreatin; pig, pancreatin, 1 h, pH 7.5): 90%

Compound: CCC(=O)OC(OC(=O)NC[C@H](CC(=O)[O-])c1ccc(Cl)cc1)C(C)C.[Na+] (stereo partly drawn) [(48), Sodium 4-[(1-Propanoyloxyisobutoxy)carbonylamino]-(3R)-(4-chlorophenyl)-butanoate]
Ratio A-B/B-A (Caco-2 cells): 6.5

Compound: CCCC(OC(=O)NC[C@H](CC(=O)[O-])c1ccc(Cl)cc1)OC(=O)c1ccccc1.[Na+] (stereo partly drawn) [(71), Sodium 4-[(1-Benzoyloxybutoxy)carbonylamino]-(3R)-(4-chlorophenyl)-butanoate]
Ratio A-B/B-A (Caco-2 cells): 7.1
